The text below walks through data of US5919682A, “Overproduction of neuronal nitric oxide synthase” (Board of Regents, University of Texas System, priority 1995, dated 1999).

Values joined by “and” are separate entries in the source; they are usually repeats but may differ in a detail not shown here. Identical values can stand only once. “Also recorded” adds a separate entry of the source.

Usually Km stands for the substrate concentration at which the rate is half of its maximum.

In data set [1] the target is T1, E. coli-expressed nNOS (Rattus norvegicus, UniProt P29476). Particulars: purified nnos, 2 min. As for the experimental part: Enzymatic activity determined by the rate of NO. formation. The rate of nitric oxide formation was measured using both the hemoglobin capture assay (Kelm and Schrader, 1990), performed at 25° C. as described by Sheta, et al. (1994), and the method of Bredt and Snyder (1990), which monitors the formation of [^3 H] L-citrulline from [^3 H] […] Each reaction mixture, containing 0.5 mg of enzyme, was incubated at 25° C. for 2 minutes (over which time the reaction is linear). For Km analysis, the concentration of [^3 H]
T1 sequence (P29476 whole entry): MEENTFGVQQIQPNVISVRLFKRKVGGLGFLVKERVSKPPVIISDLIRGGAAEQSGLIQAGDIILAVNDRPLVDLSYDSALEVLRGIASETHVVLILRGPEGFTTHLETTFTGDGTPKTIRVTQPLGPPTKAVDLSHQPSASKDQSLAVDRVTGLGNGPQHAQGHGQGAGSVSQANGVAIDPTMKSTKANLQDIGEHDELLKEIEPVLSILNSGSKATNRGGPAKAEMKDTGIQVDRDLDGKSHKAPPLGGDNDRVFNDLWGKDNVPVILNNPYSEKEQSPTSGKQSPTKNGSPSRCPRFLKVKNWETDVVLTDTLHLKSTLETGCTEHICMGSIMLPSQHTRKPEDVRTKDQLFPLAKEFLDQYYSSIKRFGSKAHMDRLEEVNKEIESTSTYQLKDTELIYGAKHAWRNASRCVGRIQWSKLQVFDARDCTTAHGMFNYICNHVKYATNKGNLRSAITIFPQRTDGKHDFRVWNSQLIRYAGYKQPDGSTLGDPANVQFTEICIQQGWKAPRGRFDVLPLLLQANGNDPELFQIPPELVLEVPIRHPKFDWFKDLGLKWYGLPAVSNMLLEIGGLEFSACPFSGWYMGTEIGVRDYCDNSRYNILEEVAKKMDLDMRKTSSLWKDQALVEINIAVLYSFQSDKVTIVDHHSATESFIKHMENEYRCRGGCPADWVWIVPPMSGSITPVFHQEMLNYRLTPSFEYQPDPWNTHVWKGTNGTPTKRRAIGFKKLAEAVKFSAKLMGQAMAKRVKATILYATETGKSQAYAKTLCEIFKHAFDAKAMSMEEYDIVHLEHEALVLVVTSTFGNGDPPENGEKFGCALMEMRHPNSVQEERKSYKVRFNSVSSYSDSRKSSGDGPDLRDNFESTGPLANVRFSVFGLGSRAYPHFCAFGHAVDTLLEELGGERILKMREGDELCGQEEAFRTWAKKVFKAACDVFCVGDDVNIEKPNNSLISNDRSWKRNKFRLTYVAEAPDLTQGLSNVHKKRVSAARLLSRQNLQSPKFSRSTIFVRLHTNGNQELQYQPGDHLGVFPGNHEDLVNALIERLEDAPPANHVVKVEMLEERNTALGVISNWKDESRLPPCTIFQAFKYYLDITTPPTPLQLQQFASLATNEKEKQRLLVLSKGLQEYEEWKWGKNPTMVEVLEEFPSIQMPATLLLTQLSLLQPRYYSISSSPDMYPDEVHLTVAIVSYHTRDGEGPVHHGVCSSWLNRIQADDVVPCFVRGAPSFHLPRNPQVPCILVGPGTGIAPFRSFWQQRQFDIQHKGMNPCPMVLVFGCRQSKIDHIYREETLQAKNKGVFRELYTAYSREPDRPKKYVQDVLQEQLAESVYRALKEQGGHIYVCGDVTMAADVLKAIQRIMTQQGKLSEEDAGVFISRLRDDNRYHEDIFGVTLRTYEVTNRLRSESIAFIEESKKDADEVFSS
Enzymatic activity of purified E. coli-expressed enzyme.

The target in data set [2] is T1, E. coli-expressed nNOS. The data set can be described thus: Substrate perturbation difference spectrophotometry (spectral binding). Further details: made in house; host or cells: E. coli BL21 co-transformed with pNOSpCW and pGroELS. As to conditions: 1 mM imidazole present; assuming Kd imidazole 160 μM; read-out: spectral binding constant (KS). As for the experimental part: Studies were performed as described in Example 2 using 1.5 μM nNOS in the presence of 1 mM imidazole.
(§1) Spectrophotometric methods. Absolute spectra and CO difference spectra were performed essentially as described by McMillan and Masters (1993) with the exception that all measurements were performed in buffer B and the CO difference spectra were obtained by reducing the protein and then bubbling the sample cuvette with CO. Substrate perturbation difference spectra were performed as described (McMillan and Masters, 1993), but in the presence of 1 mM imidazole to shift the entire population of nNOS to the low spin heme state. The molar protein concentration was determined based on heme content and Δε444-475 =75 mM^1 (Stuehr and Ikeda-Saito, 1992; McMillan and Masters, 1995). All spectral analyses were performed using a Shimadzu Model 2101 UV/visible dual-beam spectrophotometer.
(FIG. 2B), using the following:
apparent KS =KS (1+[Imidazole]/Kd imidazole).

The test system of data set [3] is nNOS isolated from rat brain. As to conditions: read-out: Km for L-arginine; reported by Bredt and Snyder (1990); cited from earlier work.
The subject of data set [4] is human kidney 293 cell-purified nNOS. The data set can be described thus: Km analysis, nNOS from human kidney 293 cells. In kind it is biochemical, rat. Particulars: read-out: Km for L-arginine. The protocol: (§2) Enzymatic activity determined by the rate of NO. formation. […] L-citrulline from [^3 H] […] For Km analysis, the concentration of [^3 H]
These values are in excellent agreement with each other and with the Km value of 2 μM for nNOS reported by Bredt and Snyder (1990).

Data set [5] addresses T1, E. coli-expressed nNOS. The data set can be described thus: Absolute absorbance spectrum perturbation of nNOS. In kind it is binding. Further details: made in house; host or cells: E. coli BL21 co-transformed with pNOSpCW and pGroELS. As to conditions: imidazole 1 mM; arginine 2 μM. The protocol: Studies were performed as described in Example 2 using 3.2 μM nNOS.
as §1

In data set [6] the target is T1, E. coli-expressed nNOS. The data set can be described thus: [3H]-NNA binding to purified E. coli-expressed nNOS by direct titration. Further details: made in house; host or cells: E. coli BL21 co-transformed with pNOSpCW and pGroELS. The protocol:
Studies were performed as described in Example 4 using 10 pmole nNOS. Symbols are: circles, semi-purified E. coli-expressednNOS eluted from a 2'5'-ADP-Sepharose 4B column in the absence of BH4 during purification; triangles, purified E. coli-expressed nNOS purified in the presence of BH4 as described in Example 1; open symbols represent data from assays performed in the absence of additional BH4; filled symbols represent data from assays performed in the presence of 10 μM BH4.
The incubation was stopped by aspiration of the sample through the PVDF membrane. The wells were washed twice with 200 μl of 50 mM Tris, pH 7.6, air-dried for 10 minutes, 25 μl scintillation cocktail was added, and samples were counted.
Binding of N^ω -nitro-arginine to purified E. coli-expressed enzyme.

A further data set concerns the target nNOS. As to conditions: assumed value from McMillan and Masters, 1993, Wolff et al., read-out: Kd imidazole; cited from earlier work.
Data set [7] can be described thus: Specific activity of nNOS (NO formation). In kind it is biochemical.
Description: as §2

With `C[C@H](O)[C@H](O)[C@H]1CNc2nc(N)[nH]c(=O)c2N1` [BH4, (6R)-5, 6, 7, 8 tetrahydro-L-biopterin], on E. coli-expressed nNOS [1], the “stimulation of turnover by BH4, fraction 1” value was determined as 2.7 fold and the “stimulation of turnover by BH4, fraction 2” value is 2.3 fold.

Take `N=C(N)NCCC[C@H](N)C(=O)O` [L-arginine]: the Kd on E. coli-expressed nNOS [2] is ~717 nM and 717 nM. For the same compound, the Km in data set [3] was 2 µM and ~2 µM; in data set [4] it was 1.9 µM and ~2 µM. In addition, on E. coli-expressed nNOS [5], the “shift of maximum heme absorbance at 400 nm” value is on record as “completely to the high spin form (peak at 395 nm)”.

Take `N=C(NCCC[C@H](N)C(=O)O)N[N+](=O)[O-]` [NNA, N^ω -nitro-L-arginine]: the Bmax on E. coli-expressed nNOS [6] (Fraction 1, (+) BH4) is 0.54 pmol NNA/pmol nNOS; at E. coli-expressed nNOS [6] (Fraction 1, (-) BH4), 0.078 pmol NNA/pmol nNOS; at E. coli-expressed nNOS [6] (Fraction 2, (+) BH4), 0.69 pmol NNA/pmol nNOS; on E. coli-expressed nNOS [6] (Fraction 2, (-) BH4), 0.67 pmol NNA/pmol nNOS. Moreover, the “binding of NNA to nNOS fraction 1” value at E. coli-expressed nNOS [6] (fraction 1 (pre-BH4)) is listed as “binds significantly to E. coli-expressed nNOS fraction 1 only in the presence of added BH4”. Further, on E. coli-expressed nNOS [6] (fraction 2 (65% BH4-saturated)), the “binding of NNA to nNOS fraction 2” value is on record as “equally well in the presence or absence of added BH4”.

Consider `c1c[nH]cn1` [imidazole], for which the Kd at nNOS is 160000 nM. Moreover, at E. coli-expressed nNOS [5], the “shift of maximum heme absorbance at 400 nm” value is “low spin form (peak at 428 nm)”.

In the case of “nNOS from JM109: nNOS co-expressed with groEL and groES in E. coli JM109, heavily proteolyzed upon cell lysis”, the “activity relative to nNOS purified from 293 cells” value in data set [7] (nNOS from E. coli JM109 co-expressing groEL and groES, heavily proteolyzed) was 1%.

Consider “nNOS: rat neuronal NOS overexpressed in E. coli BL21 with chaperonins groEL and groES”, for which, in data set [7], the “specific activity compared with mammalian (kidney 293) cell-expressed nNOS” value is “equal to or exceeding the activity of kidney 293 cell-derived enzyme; also recorded: at least as high as that of kidney 293 cell-expressed enzyme; also recorded: at least equal to or greater than the mammalian cell-expressed nNOS”. For the same compound, the “specific activity / turnover” value in data set [7] (E. coli-expressed nNOS, both hemoglobin capture and citrulline assays) turned out to be 450 nmol/min/mg.
